Test [1] concerns Glomerella lacenarium (Colletotrichum lacenarium). As to the kind of experiment: Fungicidal activity, liquid culture, cucumber preventative (anthracnose). In kind it is cell-based. Particulars: 20 ppm in the applied formulation, liquid culture in PDB, inhibition of growth measured photometrically 3 to 4 days after application, compared to untreated control, read-out: disease control. As for the experimental part: Mycelia fragments or conidia suspensions of a fungus prepared either freshly from liquid cultures of the fungus or from cryogenic storage, are directly mixed into nutrient broth. DMSO solutions of the test compound (max. 10 mg/ml) are diluted with 0.025% Tween20 by a factor of 50 and 10 μl of this solution is pipetted into a microtiter plate (96-well format). The nutrient broth containing the fungal spores/mycelia fragments is then added to give an end concentration of the tested compound. The test plates are incubated in the dark at 24° C. and 96% relative humidity. The inhibition of fungal growth is determined photometrically after 2 to 7 days, depending on the pathosystem, and percent antifungal activity relative to the untreated check is calculated.
Conidia of the fungus from cryogenic storage are directly mixed into nutrient broth (PDB—potato dextrose broth). After placing a (DMSO) solution of test compound into a microtiter plate (96-well format), the nutrient broth containing the fungal spores is added. The test plates are incubated at 24° C. and the inhibition of growth is measured photometrically 3 to 4 days after application.
The following compounds at 20 ppm in the applied formulation give at least 80% disease control in this test when compared to untreated control under the same conditions, which show extensive disease development.

The test system of test [2] is Puccinia recondita f. Sp. Tritici. Put plainly: Fungicidal activity, wheat leaf disc preventative (brown rust). In kind it is in vivo. The following applies: foliar, 200 ppm in the applied formulation, wheat leaf segments cv. Kanzler, compared to untreated control, 7 to 9 days after application, read-out: disease control. As for the experimental part: Leaf disks or leaf segments of various plant species are cut from plants grown in a greenhouse. The cut leaf disks or segments are placed in multiwell plates (24-well format) onto water agar. The leaf disks are sprayed with a test solution before (preventative) or after (curative) inoculation. Compounds to be tested are prepared as DMSO solutions (max. 10 mg/ml) which are diluted to the appropriate concentration with 0.025% Tween20 just before spraying. The inoculated leaf disks or segments are incubated under defined conditions (temperature, relative humidity, light, etc.) according to the respective test system. A single evaluation of disease level is carried out 3 to 14 days after inoculation, depending on the pathosystem. Percent disease control relative to the untreated check leaf disks or segments is then calculated.
Wheat leaf segments cv. Kanzler were placed on agar in multiwell plates (24-well format) and sprayed with the formulated test compound diluted in water. The leaf disks were inoculated with a spore suspension of the fungus 1 day after application. The inoculated leaf segments were incubated at 19° C. and 75% relative humidity (rh) under a light regime of 12 hours light/12 hours darkness in a climate cabinet and the activity of a compound was assessed as percent disease control compared to untreated when an appropriate level of disease damage appears in untreated check leaf segments (7 to 9 days after application).
The following compounds at 200 ppm in the applied formulation give at least 80% disease control in this test when compared to untreated control leaf disks under the same conditions, which show extensive disease development.

As to `COC(=O)N(Cc1ccc(-c2noc(C(F)(F)F)n2)s1)OC` [Compound 1.5, methyl N-methoxy-N-[[5-[5-(trifluoromethyl)-1,2,4-oxadiazol-3-yl]-2-thienyl]methyl]carbamate], the inhibition of growth at 20 ppm in test [1] is no less than 80%. Also, the pest or weed control at 200 ppm in test [2] is no less than 80%.
Turning to `CON(Cc1ccc(-c2noc(C(F)(F)F)n2)s1)C(=O)c1ccccc1Cl` [Compound 1.20, 2-chloro-N-methoxy-N-[[5-[5-(trifluoromethyl)-1,2,4-oxadiazol-3-yl]-2-thienyl]methyl]benzamide], the inhibition of growth at 20 ppm in test [1] is no less than 80%. Besides, the pest or weed control at 200 ppm in test [2] was no less than 80%.
For `CON(Cc1ccc(-c2noc(C(F)(F)F)n2)s1)S(=O)(=O)c1ccn(C)n1` [Compound 1.33, N-methoxy-1-methyl-N-[[5-[5-(trifluoromethyl)-1,2,4-oxadiazol-3-yl]-2-thienyl]methyl]pyrazole-3-sulfonamide], the inhibition of growth at 20 ppm in test [1] is no less than 80%. Besides, in test [2], the pest or weed control at 200 ppm was no less than 80%.
For the compound `CON(Cc1ccc(-c2noc(C(F)(F)F)n2)s1)S(=O)(=O)C1CC1` [Compound 1.37, N-methoxy-N-[[5-[5-(trifluoromethyl)-1,2,4-oxadiazol-3-yl]-2-thienyl]methyl]cyclopropanesulfonamide], the inhibition of growth at 20 ppm in test [1] is no less than 80%. Further, the pest or weed control at 200 ppm in test [2] was no less than 80%.
For the compound `CON(Cc1ccc(-c2noc(C(F)(F)F)n2)s1)S(=O)(=O)N(C)C` [Compound 1.43, N-(dimethylsulfamoyl)-N-methoxy-1-[5-[5-(trifluoromethyl)-1,2,4-oxadiazol-3-yl]-2-thienyl]methanamine], the inhibition of growth at 20 ppm in test [1] was no less than 80%. Also, the pest or weed control at 200 ppm in test [2] was no less than 80%.
As to `COCC(=O)N(C)Cc1ccc(-c2noc(C(F)(F)F)n2)s1` [Compound 4.32, 2-methoxy-N-methyl-N-[[5-[5-(trifluoromethyl)-1,2,4-oxadiazol-3-yl]-2-thienyl]methyl]acetamide], in test [1], the inhibition of growth at 20 ppm is no less than 80%. For the same compound, the pest or weed control at 200 ppm in test [2] was no less than 80%.
As to `O=C(CC(F)(F)F)N(Cc1ccc(-c2noc(C(F)(F)F)n2)s1)C1CC1` [Compound 4.60, N-cyclopropyl-3,3,3-trifluoro-N-[[5-[5-(trifluoromethyl)-1,2,4-oxadiazol-3-yl]-2-thienyl]methyl]propanamide], in test [1], the inhibition of growth at 20 ppm was no less than 80%. In test [2], the pest or weed control at 200 ppm was no less than 80%.
On to `CC(=O)N(Cc1ccc(-c2noc(C(F)(F)F)n2)s1)C1CC1` [Compound 4.61, N-cyclopropyl-N-[[5-[5-(trifluoromethyl)-1,2,4-oxadiazol-3-yl]-2-thienyl]methyl]acetamide], for which the inhibition of growth at 20 ppm in test [1] is no less than 80%. Moreover, the pest or weed control at 200 ppm in test [2] was no less than 80%.
In the case of `CC(=O)N(Cc1ccc(-c2noc(C(F)(F)F)n2)s1)OCC(F)F` [Compound 4.69, N-(2,2-difluoroethoxy)-N-[[5-[5-(trifluoromethyl)-1,2,4-oxadiazol-3-yl]-2-thienyl]methyl]acetamide], the inhibition of growth at 20 ppm in test [1] was no less than 80%. In test [2], the pest or weed control at 200 ppm is no less than 80%.
As for `CN(Cc1ccc(-c2noc(C(F)(F)F)n2)s1)C(=O)c1ccccc1Cl` [Compound 5.17, 2-chloro-N-methyl-N-[[5-[5-(trifluoromethyl)-1,2,4-oxadiazol-3-yl]-2-thienyl]methyl]benzamide], the inhibition of growth at 20 ppm in test [1] is no less than 80%. Also, in test [2], the pest or weed control at 200 ppm was no less than 80%.
As to `CC(C)N(Cc1ccc(-c2noc(C(F)(F)F)n2)s1)C(=O)c1ccccc1Cl` [Compound 5.26, 2-chloro-N-isopropyl-N-[[5-[5-(trifluoromethyl)-1,2,4-oxadiazol-3-yl]-2-thienyl]methyl]benzamide], in test [1], the inhibition of growth at 20 ppm is no less than 80%. In addition, the pest or weed control at 200 ppm in test [2] was no less than 80%.
As for `O=C(C1CCC1)N(Cc1ccc(-c2noc(C(F)(F)F)n2)s1)C1CC1` [Compound 5.38, N-cyclopropyl-N-[[5-[5-(trifluoromethyl)-1,2,4-oxadiazol-3-yl]-2-thienyl]methyl]cyclobutanecarboxamide], in test [1], the inhibition of growth at 20 ppm was no less than 80%. The pest or weed control at 200 ppm in test [2] was no less than 80%.
In the case of `O=C(CC1CC1)N(Cc1ccc(-c2noc(C(F)(F)F)n2)s1)OCC(F)F` [Compound 5.45, 2-cyclopropyl-N-(2,2-difluoroethoxy)-N-[[5-[5-(trifluoromethyl)-1,2,4-oxadiazol-3-yl]-2-thienyl]methyl]acetamide], the inhibition of growth at 20 ppm in test [1] is no less than 80%. In addition, the pest or weed control at 200 ppm in test [2] was no less than 80%.
Consider `O=C(C1CCOC1)N(Cc1ccc(-c2noc(C(F)(F)F)n2)s1)OCC(F)F` (stereo not drawn) [Compound 5.46, N-(2,2-difluoroethoxy)-N-[[5-[5-(trifluoromethyl)-1,2,4-oxadiazol-3-yl]-2-thienyl]methyl]tetrahydrofuran-3-carboxamide], for which the inhibition of growth at 20 ppm in test [1] was no less than 80%. Further, the pest or weed control at 200 ppm in test [2] is no less than 80%.
Take `O=C(C1CCC1)N(Cc1ccc(-c2noc(C(F)(F)F)n2)s1)OCC(F)F` [Compound 5.47, N-(2,2-difluoroethoxy)-N-[[5-[5-(trifluoromethyl)-1,2,4-oxadiazol-3-yl]-2-thienyl]methyl]cyclobutanecarboxamide]: in test [1], the inhibition of growth at 20 ppm is no less than 80%. In test [2], the pest or weed control at 200 ppm was no less than 80%.
Regarding `O=C(C1CCCO1)N(Cc1ccc(-c2noc(C(F)(F)F)n2)s1)OCC(F)F` (stereo not drawn) [Compound 5.49, N-(2,2-difluoroethoxy)-N-[[5-[5-(trifluoromethyl)-1,2,4-oxadiazol-3-yl)-2-thienyl]methyl]tetrahydrofuran-2-carboxamide], in test [1], the inhibition of growth at 20 ppm was no less than 80%. In addition, in test [2], the pest or weed control at 200 ppm is no less than 80%.
`O=C(N(Cc1ccc(-c2noc(C(F)(F)F)n2)s1)C1CC1)N(CC(F)F)C1CC1` [Compound 5.60, 1,3-dicyclopropyl-1-(2,2-difluoroethyl)-3-[[5-[5-(trifluoromethyl)-1,2,4-oxadiazol-3-yl]-2-thienyl]methyl]urea]: the inhibition of growth at 20 ppm in test [1] was no less than 80%. Further, in test [2], the pest or weed control at 200 ppm was no less than 80%.
Turning to `CS(=O)(=O)N(Cc1ccc(-c2noc(C(F)(F)F)n2)s1)C1CC1` [Compound 6.1, N-cyclopropyl-N-[[5-[5-(trifluoromethyl)-1,2,4-oxadiazol-3-yl]-2-thienyl]methyl]methanesulfonamide], in test [1], the inhibition of growth at 20 ppm was no less than 80%. In addition, in test [2], the pest or weed control at 200 ppm was no less than 80%.
In the case of `CN(C)S(=O)(=O)N(Cc1ccc(-c2noc(C(F)(F)F)n2)s1)C1CC1` [Compound 6.2, N-(dimethylsulfamoyl)-N-[[5-[5-(trifluoromethyl)-1,2,4-oxadiazol-3-yl]-2-thienyl]methyl]cyclopropanamine], the inhibition of growth at 20 ppm in test [1] is no less than 80%. In test [2], the pest or weed control at 200 ppm is no less than 80%.
Take `CCN(Cc1ccc(-c2noc(C(F)(F)F)n2)s1)S(=O)(=O)Cc1ccccc1` [Compound 6.13, N-ethyl-1-phenyl-N-[[5-[5-(trifluoromethyl)-1,2,4-oxadiazol-3-yl]-2-thienyl]methyl]methanesulfonamide]: the inhibition of growth at 20 ppm in test [1] is no less than 80%. For the same compound, the pest or weed control at 200 ppm in test [2] was no less than 80%.
As for `CCN(Cc1ccc(-c2noc(C(F)(F)F)n2)s1)S(=O)(=O)C1CC1` [Compound 6.19, N-ethyl-N-[[5-[5-(trifluoromethyl)-1,2,4-oxadiazol-3-yl]-2-thienyl]methyl]cyclopropanesulfonamide], the inhibition of growth at 20 ppm in test [1] is no less than 80%. Further, in test [2], the pest or weed control at 200 ppm was no less than 80%.
On to `CCCCS(=O)(=O)N(C)Cc1ccc(-c2noc(C(F)(F)F)n2)s1` [Compound 6.24, N-methyl-N-[[5-[5-(trifluoromethyl)-1,2,4-oxadiazol-3-yl]-2-thienyl]methyl]butane-1-sulfonamide], for which, in test [2], the pest or weed control at 200 ppm was no less than 80%.
On the same count and under the same terms, the result for `CN(Cc1ccc(-c2noc(C(F)(F)F)n2)s1)S(=O)(=O)c1ccccc1` [Compound 6.26, N-methyl-N-[[5-[5-(trifluoromethyl)-1,2,4-oxadiazol-3-yl]-2-thienyl]methyl]benzenesulfonamide] reads no less than 80%; that for `O=S(=O)(c1ccccc1)N(Cc1ccc(-c2noc(C(F)(F)F)n2)s1)C1CC1` [Compound 6.36, N-cyclopropyl-N-[[5-[5-(trifluoromethyl)-1,2,4-oxadiazol-3-yl]-2-thienyl]methyl]benzenesulfonamide], no less than 80%.

Values taken from patent publication US20200187502A1, “MICROBIOCIDAL OXADIAZOLE DERIVATIVES” (SYNGENTA PARTICIPATIONS AG, priority 2017, published 2020).
